The source of these data is patent US20240336654A1, “ANTIMICROBIAL PEPTIDOMIMETICS” (SPEXIS AG, priority 2021, published 2024).

Common to all, as to assay type: cell-based
For series [1], the system named is Escherichia coli ATCC 25922. The settings on record: ATCC 25922. Summed up:
(§1)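 CLSI broth microdilution, slightly modified: cation-adjusted Mueller-Hinton II broth with about 5×10^5 CFU/mL from a 0.5 McFarland suspension, and two-fold serial peptide dilutions with Polysorbate 80 at 0.002% final. MIC (μg/mL) was the lowest concentration with no visible growth after 18-20 hours at 35° C.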

The subject of series [2] is Escherichia coli MCR-1 Af 45. As to conditions: MCR-1 Af 45. The essentials:
as §1

Series [3] has as its system Klebsiella pneumoniae SSI3010. As to conditions: SSI3010. Summed up:
as §1

The subject of series [4] is human red blood cells (hRBC). As to conditions: red cells of human, 1 h, 200 μg/mL. The essentials:
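Percent hemolysis derived from OD540 of supernatants relative to full lysis by 2.5% Triton X-100 (PBS baseline). Washed fresh human erythrocytes (20% v/v) were exposed to 200 μg/mL peptide for 1 h at 37 °C with shaking.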

SMILES strings stand for the structures. Where a SMILES comes first, the peptide text is derived from it. Bridges are numbered along the chain shown (N, C = ends). [ ]: non-standard residue; d: D form. The star is where a group is joined. Val(Nα-amidino) = CC(C)[C@H](NC(=N)N)C(=O)*; Hyp = O=C(O)[C@@H]1C[C@@H](O)CN1; Cit = NC(=O)NCCC[C@H](N)C(=O)O; Pen = CC(C)(S)[C@H](N)C(=O)O; dDab = NCC[C@@H](N)C(=O)O; Orn = NCCC[C@H](N)C(=O)O; Dab = NCC[C@H](N)C(=O)O

As for `CC[C@H](C)[C@H](NC(=O)[C@@H]1C[C@@H](O)CN1C(=O)[C@@H](NC(=N)N)C(C)C)C(=O)N[C@@H]1C(=O)N[C@@H](Cc2ccc(O)cc2)C(=O)N[C@@H]([C@@H](C)O)C(=O)N[C@@H](CC(N)=O)C(=O)N[C@@H](CCCNC(=N)N)C(=O)N[C@@H](CCN)C(=O)N[C@@H]([C@@H](C)O)C(=O)N[C@H](CCN)C(=O)N[C@@H](CCCNC(N)=O)C(=O)N[C@@H](CCN)C(=O)N[C@@H](CCN)C(=O)N[C@H](C(=O)N[C@@H](Cc2ccc(O)cc2)C(=O)O)CSSC1(C)C` [Example 97, Gua-Val-Hyp-Ile-Pen-Tyr-Thr-Asn-Arg-Dab-Thr-^DDab-Cit-Dab-Dab-Cys-Tyr] ({Val(Nα-amidino)}-[Hyp]I[Pen]YTNR[Dab]T[dDab][Cit][Dab][Dab]CY-OH; disulfide 3-14), the “Escherichia coli ATCC 25922 MIC” value in series [1] was 0.125 µg/mL. Further, the “Escherichia coli MCR-1 Af45 MIC” value in series [2] was 0.125 µg/mL. Further, in series [3], the “Klebsiella pneumoniae SSI3010 MIC” value is 0.25 µg/mL. The “Hemolysis at 0.2 g/L” value in series [4] is given as under 1%.
With `CC[C@H](C)[C@H](NC(=O)[C@@H]1C[C@@H](O)CN1C(=O)[C@@H](NC(=N)N)C(C)C)C(=O)N[C@@H]1C(=O)N[C@@H](Cc2ccc(O)cc2)C(=O)N[C@@H]([C@@H](C)O)C(=O)N[C@@H](CC(N)=O)C(=O)N[C@@H](CCCNC(=N)N)C(=O)N[C@@H](CCN)C(=O)N[C@@H]([C@@H](C)O)C(=O)N[C@H](CCN)C(=O)N[C@@H](CCCCN)C(=O)N[C@@H](CCN)C(=O)N[C@@H](CCCNC(N)=O)C(=O)N[C@H](C(=O)N[C@@H](Cc2ccc(O)cc2)C(=O)O)CSSC1(C)C` [Example 98, Gua-Val-Hyp-Ile-Pen-Tyr-Thr-Asn-Arg-Dab-Thr-^DDab-Lys-Dab-Cit-Cys-Tyr] ({Val(Nα-amidino)}-[Hyp]I[Pen]YTNR[Dab]T[dDab]K[Dab][Cit]CY-OH; disulfide 3-14), the “Escherichia coli ATCC 25922 MIC” value in series [1] amounted to 0.25 µg/mL. Further, the “Escherichia coli MCR-1 Af45 MIC” value in series [2] was 0.125 µg/mL. Besides, the “Klebsiella pneumoniae SSI3010 MIC” value in series [3] amounted to 0.5 µg/mL. Besides, the “Hemolysis at 0.2 g/L” value in series [4] is listed as under 1%.
As for `CC[C@H](C)[C@H](NC(=O)[C@@H]1C[C@@H](O)CN1C(=O)[C@@H](NC(=N)N)C(C)C)C(=O)N[C@@H]1C(=O)N[C@@H](Cc2ccc(O)cc2)C(=O)N[C@@H](CO)C(=O)N[C@@H](CC(N)=O)C(=O)N[C@@H](CCCNC(=N)N)C(=O)N[C@@H](CCN)C(=O)N[C@@H]([C@@H](C)O)C(=O)N[C@H](CCN)C(=O)N[C@@H](CO)C(=O)N[C@@H](CCN)C(=O)N[C@@H](CCN)C(=O)N[C@H](C(=O)N[C@@H](Cc2ccc(O)cc2)C(=O)O)CSSC1(C)C` [Example 99, Gua-Val-Hyp-Ile-Pen-Tyr-Ser-Asn-Arg-Dab-Thr-^DDab-Ser-Dab-Dab-Cys-Tyr] ({Val(Nα-amidino)}-[Hyp]I[Pen]YSNR[Dab]T[dDab]S[Dab][Dab]CY-OH; disulfide 3-14), the “Escherichia coli ATCC 25922 MIC” value in series [1] came out at 0.25 µg/mL. Besides, in series [2], the “Escherichia coli MCR-1 Af45 MIC” value was determined as 0.125 µg/mL. The “Klebsiella pneumoniae SSI3010 MIC” value in series [3] turned out to be 0.25 µg/mL. Moreover, the “Hemolysis at 0.2 g/L” value in series [4] was under 1%.
Consider `CC[C@H](C)[C@H](NC(=O)[C@@H]1C[C@@H](O)CN1C(=O)[C@@H](NC(=N)N)C(C)C)C(=O)N[C@@H]1C(=O)N[C@@H](Cc2ccc(O)cc2)C(=O)N[C@@H]([C@@H](C)O)C(=O)N[C@@H](CC(N)=O)C(=O)N[C@@H](CCCNC(=N)N)C(=O)N[C@@H](CCN)C(=O)N[C@@H]([C@@H](C)O)C(=O)N[C@H](CCN)C(=O)N[C@@H](CO)C(=O)N[C@@H](CCN)C(=O)N[C@@H](CCCN)C(=O)N[C@H](C(=O)N[C@@H](Cc2ccc(O)cc2)C(=O)O)CSSC1(C)C` [Example 100, Gua-Val-Hyp-Ile-Pen-Tyr-Thr-Asn-Arg-Dab-Thr-^DDab-Ser-Dab-Orn-Cys-Tyr] ({Val(Nα-amidino)}-[Hyp]I[Pen]YTNR[Dab]T[dDab]S[Dab][Orn]CY-OH; disulfide 3-14), for which the “Escherichia coli ATCC 25922 MIC” value in series [1] was 0.25 µg/mL. In addition, in series [2], the “Escherichia coli MCR-1 Af45 MIC” value worked out at 0.25 µg/mL. For the same molecule, in series [3], the “Klebsiella pneumoniae SSI3010 MIC” value was 0.5 µg/mL. For the same molecule, in series [4], the “Hemolysis at 0.2 g/L” value is under 1%.
As to `CC[C@H](C)[C@H](NC(=O)[C@@H]1C[C@@H](O)CN1C(=O)[C@@H](NC(=N)N)C(C)C)C(=O)N[C@@H]1C(=O)N[C@@H](Cc2ccc(O)cc2)C(=O)N[C@@H](CCN)C(=O)N[C@@H](CC(N)=O)C(=O)N[C@@H](CCCNC(=N)N)C(=O)N[C@@H](CCN)C(=O)N[C@@H]([C@@H](C)O)C(=O)N[C@H](CCN)C(=O)N[C@@H](CCCCN)C(=O)N[C@@H]([C@@H](C)O)C(=O)N[C@@H](CCN)C(=O)N[C@H](C(=O)N[C@@H](Cc2ccc(O)cc2)C(=O)O)CSSC1(C)C` [Example 101, Gua-Val-Hyp-Ile-Pen-Tyr-Dab-Asn-Arg-Dab-Thr-^DDab-Lys-Thr-Dab-Cys-Tyr] ({Val(Nα-amidino)}-[Hyp]I[Pen]Y[Dab]NR[Dab]T[dDab]KT[Dab]CY-OH; disulfide 3-14), the “Escherichia coli ATCC 25922 MIC” value in series [1] stood at 0.125 µg/mL. In addition, in series [2], the “Escherichia coli MCR-1 Af45 MIC” value turned out to be 0.125 µg/mL. Besides, in series [3], the “Klebsiella pneumoniae SSI3010 MIC” value was 0.5 µg/mL. Further, the “Hemolysis at 0.2 g/L” value in series [4] is under 1%.
With `CC[C@H](C)[C@H](NC(=O)[C@@H]1C[C@@H](O)CN1C(=O)[C@@H](NC(=N)N)C(C)C)C(=O)N[C@@H]1C(=O)N[C@@H](Cc2ccc(O)cc2)C(=O)N[C@@H](CCN)C(=O)N[C@@H](CC(N)=O)C(=O)N[C@@H](CCCNC(=N)N)C(=O)N[C@@H](CCN)C(=O)N[C@@H]([C@@H](C)O)C(=O)N[C@H](CCN)C(=O)N[C@@H](CO)C(=O)N[C@@H]([C@@H](C)O)C(=O)N[C@@H](CCN)C(=O)N[C@H](C(=O)N[C@@H](Cc2ccc(O)cc2)C(=O)O)CSSC1(C)C` [Example 102, Gua-Val-Hyp-Ile-Pen-Tyr-Dab-Asn-Arg-Dab-Thr-^DDab-Ser-T-Dab-Cys-Tyr] ({Val(Nα-amidino)}-[Hyp]I[Pen]Y[Dab]NR[Dab]T[dDab]ST[Dab]CY-OH; disulfide 3-14), the “Escherichia coli ATCC 25922 MIC” value in series [1] stood at 0.25 µg/mL. Moreover, the “Escherichia coli MCR-1 Af45 MIC” value in series [2] turned out to be 0.25 µg/mL. Further, the “Klebsiella pneumoniae SSI3010 MIC” value in series [3] was found to be 0.5 µg/mL. Besides, the “Hemolysis at 0.2 g/L” value in series [4] was under 1%.
On to `CC[C@H](C)[C@H](NC(=O)[C@@H]1C[C@@H](O)CN1C(=O)[C@@H](NC(=N)N)C(C)C)C(=O)N[C@@H]1C(=O)N[C@@H](Cc2ccc(O)cc2)C(=O)N[C@@H]([C@@H](C)O)C(=O)N[C@@H](CC(N)=O)C(=O)N[C@@H](CCCNC(=N)N)C(=O)N[C@H](CCN)C(=O)N[C@@H]([C@@H](C)O)C(=O)N[C@H](CCN)C(=O)N[C@@H](CO)C(=O)N[C@@H](CCN)C(=O)N[C@@H](CCN)C(=O)N[C@H](C(=O)N[C@@H](Cc2ccc(O)cc2)C(=O)O)CSSC1(C)C` [Example 103, Gua-Val-Hyp-Ile-Pen-Tyr-Thr-Asn-Arg-^DDab-Thr-^DDab-Ser-Dab-Dab-Cys-Tyr] ({Val(Nα-amidino)}-[Hyp]I[Pen]YTNR[dDab]T[dDab]S[Dab][Dab]CY-OH; disulfide 3-14), for which the “Escherichia coli ATCC 25922 MIC” value in series [1] stood at 0.125 µg/mL. For the same molecule, the “Escherichia coli MCR-1 Af45 MIC” value in series [2] was determined as 0.125 µg/mL. Further, in series [3], the “Klebsiella pneumoniae SSI3010 MIC” value amounted to 0.25 µg/mL. The “Hemolysis at 0.2 g/L” value in series [4] was under 1%.
